This note sets out measurements from ChEMBL document CHEMBL4043095, “Cyclic MOG35-55 ameliorates clinical and neuropathological features of experimental autoimmune encephalomyelitis” (2017).

Calls of active or inactive are those of the source. The rule behind the calls is not given here. Residues, ends and D or L forms follow the SMILES beside them.

In experiment [1] the target is HLA-DRB2 protein (Homo sapiens) (UniProt Q30155). Kind of experiment: Inhibition of AMCA-labeled MBP (83 to 99) binding to HLA-DR2b […] in human HTC-Lan B cells at 10 fold excess after 48 hrs by fluorescence spectrophotometric method. The format is cell-based.
Chain of HLA-DRB2 protein (Homo sapiens) (Q30155 as listed by the source): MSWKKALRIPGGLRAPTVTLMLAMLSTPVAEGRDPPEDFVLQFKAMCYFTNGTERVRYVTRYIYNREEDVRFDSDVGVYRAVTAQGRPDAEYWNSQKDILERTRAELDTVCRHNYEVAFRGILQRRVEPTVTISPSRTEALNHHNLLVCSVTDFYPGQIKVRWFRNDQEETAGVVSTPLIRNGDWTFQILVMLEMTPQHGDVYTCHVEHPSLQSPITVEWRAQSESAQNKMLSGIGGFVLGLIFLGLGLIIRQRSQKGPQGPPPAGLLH
The target is the same in experiment [2]. Kind of experiment: Inhibition of AMCA-labeled MBP (83 to 99) binding to HLA-DR2b […] in human HTC-Lan B cells at 20 fold excess after 48 hrs by fluorescence spectrophotometric method. In kind it is cell-based.
The test system of experiment [3] is Mus musculus. Kind of experiment: Immunomodulatory activity in C57BL/6 mouse subcutaneously immunized using 1:1 mixture of linear and cyclic MOG35 to 55 peptide in presence of complete Freunds adjuvant (CFA) followed by intraperitoneal pertussis toxin assessed as reduction in overall disease burden measured 16 days post disease induction. In kind it is functional.

Experiment [4] deals with Mus musculus. Kind of experiment: Antiinflammatory activity in C57BL/6 mouse EAE model subcutaneously immunized using 1:1 mixture of linear and cyclic MOG35 to 55 peptide in presence of complete Freunds adjuvant (CFA) followed by intraperitoneal pertussis toxin assessed as reduction demyelinating area measured 46 days post disease induction by Luxol fast blue (LFB) staining counterstained with Nuclear fast Red staining-based assay. In kind it is functional.

Experiment [5] deals with Mus musculus. Kind of experiment: Antiinflammatory activity in C57BL/6 mouse EAE model subcutaneously immunized using 1:1 mixture of linear and cyclic MOG35 to 55 peptide in presence of complete Freunds adjuvant (CFA) followed by intraperitoneal pertussis toxin assessed as reduction demyelinating area measured 16 days post disease induction by Bielschowsky silver impregnation staining method combined with haematoxylin staining-based assay. In kind it is functional.

The test system of experiment [6] is Mus musculus. Kind of experiment: Antiinflammatory activity in C57BL/6 mouse EAE model subcutaneously immunized using 1:1 mixture of linear and cyclic MOG35 to 55 peptide in presence of complete Freunds adjuvant (CFA) followed by intraperitoneal pertussis toxin assessed as reduction demyelinating area measured 16 days post disease induction by Luxol fast blue (LFB) staining counterstained with Nuclear fast Red staining-based assay. The format is functional.

The test system of experiment [7] is Mus musculus. Put plainly: Antiinflammatory activity in C57BL/6 mouse EAE model subcutaneously immunized using 1:1 mixture of linear and cyclic MOG35 to 55 peptide in presence of complete Freunds adjuvant (CFA) followed by intraperitoneal pertussis toxin assessed as protection against axonal loss by measuring normal cell population in spinal cord measured 16 days post disease induction (reference value: 4.3%). In kind it is functional.

Experiment [8] relates to Mus musculus. Put plainly: Antiinflammatory activity in C57BL/6 mouse EAE model subcutaneously immunized using 1:1 mixture of linear and cyclic MOG35 to 55 peptide in presence of complete Freunds adjuvant (CFA) followed by intraperitoneal pertussis toxin assessed as protection against axonal injury by measuring normal cell population in spinal cord measured 46 days post disease induction (reference value: 32%). The format is functional.

Experiment [9] relates to Mus musculus. Kind of experiment: Antiinflammatory activity in C57BL/6 mouse EAE model subcutaneously immunized using 1:1 mixture of linear and cyclic MOG35 to 55 peptide in presence of complete Freunds adjuvant (CFA) followed by intraperitoneal pertussis toxin assessed as reduction in size of inflammatory foci measured 16 days post disease induction by Bielschowsky silver impregnation staining method combined with haematoxylin staining-based assay. In kind it is functional.

The subject of experiment [10] is Mus musculus. Kind of experiment: Antiinflammatory activity in C57BL/6 mouse EAE model subcutaneously immunized using 1:1 mixture of linear and cyclic MOG35 to 55 peptide in presence of complete Freunds adjuvant (CFA) followed by intraperitoneal pertussis toxin assessed as protection against axonal loss by measuring normal cell population in spinal cord measured 46 days post disease induction (reference value: 27.3%). In kind it is functional.

In experiment [11] the test system is Mus musculus. Kind of experiment: Antiinflammatory activity in C57BL/6 mouse EAE model subcutaneously immunized using 1:1 mixture of linear and cyclic MOG35 to 55 peptide in presence of complete Freunds adjuvant (CFA) followed by intraperitoneal pertussis toxin assessed as reduction in size of inflammatory foci measured 46 days post disease induction by Luxol fast blue (LFB) staining counterstained with Nuclear fast Red staining-based assay. The format is functional.

For experiment [12], the system named is Mus musculus. Kind of experiment: Immunomodulatory activity in C57BL/6 mouse subcutaneously immunized using 1:1 mixture of linear and cyclic MOG35 to 55 peptide in presence of complete Freunds adjuvant (CFA) followed by intraperitoneal pertussis toxin assessed as reduction in overall disease burden measured 46 days post disease induction. The format is functional.

The target of experiment [13] is HLA-DRB2 protein (Homo sapiens) (UniProt Q30155). Put plainly: Inhibition of AMCA-labeled MBP (83 to 99) binding to HLA-DR2b […] in human HTC-Lan B cells at 50 fold excess after 48 hrs by fluorescence spectrophotometric method. In kind it is cell-based.
Experiment [14] concerns Mus musculus. Kind of experiment: Antiinflammatory activity in C57BL/6 mouse EAE model subcutaneously immunized using 1:1 mixture of linear and cyclic MOG35 to 55 peptide in presence of complete Freunds adjuvant (CFA) followed by intraperitoneal pertussis toxin assessed as protection against axonal injury by measuring normal cell population in spinal cord measured 16 days post disease induction (reference value: 4.3%). The format is functional.

Experiment [15] concerns Mus musculus. Put plainly: Antiinflammatory activity in C57BL/6 mouse EAE model subcutaneously immunized using 1:1 mixture of linear and cyclic MOG35 to 55 peptide in presence of complete Freunds adjuvant (CFA) followed by intraperitoneal pertussis toxin assessed as axonal injury in spinal cord measured 46 days post disease induction (reference value: 0.7 to 36%). The format is functional.

Experiment [16] relates to Mus musculus. Kind of experiment: Antiinflammatory activity in C57BL/6 mouse EAE model subcutaneously immunized using 1:1 mixture of linear and cyclic MOG35 to 55 peptide in presence of complete Freunds adjuvant (CFA) followed by intraperitoneal pertussis toxin assessed as axonal injury in spinal cord measured 16 days post disease induction (reference value: 15.2 to 42.4%). In kind it is functional.

Experiment [17] concerns Mus musculus. Kind of experiment: Antiinflammatory activity in C57BL/6 mouse EAE model subcutaneously immunized using 1:1 mixture of linear and cyclic MOG35 to 55 peptide in presence of complete Freunds adjuvant (CFA) followed by intraperitoneal pertussis toxin assessed as reduction in size of inflammatory foci measured 16 days post disease induction by Luxol fast blue (LFB) staining counterstained with Nuclear fast Red staining-based assay. In kind it is functional.

Experiment [18] relates to Mus musculus. Put plainly: Antiinflammatory activity in C57BL/6 mouse EAE model subcutaneously immunized using 1:1 mixture of linear and cyclic MOG35 to 55 peptide in presence of complete Freunds adjuvant (CFA) followed by intraperitoneal pertussis toxin assessed as reduction demyelinating area measured 46 days post disease induction by Bielschowsky silver impregnation staining method combined with haematoxylin staining-based assay. In kind it is functional.

The subject of experiment [19] is Mus musculus. Put plainly: Antiinflammatory activity in C57BL/6 mouse EAE model subcutaneously immunized using 1:1 mixture of linear and cyclic MOG35 to 55 peptide in presence of complete Freunds adjuvant (CFA) followed by intraperitoneal pertussis toxin assessed as reduction in size of inflammatory foci measured 46 days post disease induction by Bielschowsky silver impregnation staining method combined with haematoxylin staining-based assay. In kind it is functional.

Experiment [20] has as its system Mus musculus. Kind of experiment: Antiinflammatory activity in C57BL/6 mouse EAE model subcutaneously immunized using 1:1 mixture of linear and cyclic MOG35 to 55 peptide in presence of complete Freunds adjuvant (CFA) followed by intraperitoneal pertussis toxin assessed as axonal loss in spinal cord measured 16 days post disease induction (reference value: 13 to 30.4%). In kind it is functional.

Experiment [21] has as its system Mus musculus. Put plainly: Antiinflammatory activity in C57BL/6 mouse EAE model subcutaneously immunized using 1:1 mixture of linear and cyclic MOG35 to 55 peptide in presence of complete Freunds adjuvant (CFA) followed by intraperitoneal pertussis toxin assessed as axonal loss in spinal cord measured 46 days post disease induction (reference value: 4.7 to 26%). The format is functional.

Take `CC[C@H](C)[C@H](NC(=O)[C@H](CC(N)=O)NC(=O)[C@H](CCCCN)NC(=O)[C@H](Cc1ccccc1)NC(=O)[C@H](Cc1ccccc1)NC(=O)[C@H](Cc1cnc[nH]1)NC(=O)[C@@H](NC(=O)[C@@H](NC(=O)[C@@H]1CCCN1C(=O)[C@H](CC(N)=O)NC(=O)[C@@H](N)CCC(=O)O)C(C)C)C(C)C)C(=O)N[C@H](C(=O)N[C@H](C(=O)N1CCC[C@H]1C(=O)N[C@@H](CCCNC(=N)N)C(=O)N[C@H](C(=O)N1CCC[C@H]1C(=O)O)[C@@H](C)O)[C@@H](C)O)C(C)C`: in experiment [1], the inhibition entry is “Active”.
For the compound `CSCC[C@H](N)C(=O)N[C@@H](CCC(=O)O)C(=O)N[C@H](C(=O)NCC(=O)N[C@@H](Cc1c[nH]c2ccccc12)C(=O)N[C@@H](Cc1ccc(O)cc1)C(=O)N[C@@H](CCCNC(=N)N)C(=O)N[C@@H](CO)C(=O)N1CCC[C@H]1C(=O)N[C@@H](Cc1ccccc1)C(=O)N[C@@H](CO)C(=O)N[C@@H](CCCNC(=N)N)C(=O)N[C@H](C(=O)N[C@H](C(=O)N[C@@H](Cc1cnc[nH]1)C(=O)N[C@@H](CC(C)C)C(=O)N[C@@H](Cc1ccc(O)cc1)C(=O)N[C@@H](CCCNC(=N)N)C(=O)N[C@@H](CC(N)=O)C(=O)NCC(=O)N[C@@H](CCCCN)C(=O)O)C(C)C)C(C)C)C(C)C` (H-MEVGWYRSPFSRVVHLYRNGK-OH), the inhibition entry in [2] was “Active”.
Regarding `CSCC[C@@H]1NC(=O)[C@H](CCCCN)NC(=O)CNC(=O)[C@H](CC(N)=O)NC(=O)[C@H](CCCNC(=N)N)NC(=O)[C@H](Cc2ccc(O)cc2)NC(=O)[C@H](CC(C)C)NC(=O)[C@H](Cc2cnc[nH]2)NC(=O)[C@H](C(C)C)NC(=O)[C@H](C(C)C)NC(=O)[C@H](CCCNC(=N)N)NC(=O)[C@H](CO)NC(=O)[C@H](Cc2ccccc2)NC(=O)[C@@H]2CCCN2C(=O)[C@H](CO)NC(=O)[C@H](CCCNC(=N)N)NC(=O)[C@H](Cc2ccc(O)cc2)NC(=O)[C@H](Cc2c[nH]c3ccccc23)NC(=O)CNC(=O)[C@H](C(C)C)NC(=O)[C@H](CCC(=O)O)NC1=O` (cyclo(EVGWYRSPFSRVVHLYRNGKM)), the outcome with Mus musculus [3], in the experiment with Mus musculus [4], in the experiment on Mus musculus [5], with Mus musculus [6], in the experiment on Mus musculus [9] and in the experiment on Mus musculus [11] was Active. In addition, the outcome in the experiment with Mus musculus [12], with Mus musculus [17], in the experiment on Mus musculus [18] and in the experiment on Mus musculus [19] was Active. Moreover, the Activity in the experiment on Mus musculus [7] was 36.2%; with Mus musculus [8], 48.3%; in the experiment on Mus musculus [10], 45.6%; in the experiment on Mus musculus [14], 37.1%; in the experiment on Mus musculus [15], 0.7 - 26.5%; in the experiment on Mus musculus [16] it was 0.9 - 40.5%. Also, the results for the Activity with Mus musculus [20] and in the experiment with Mus musculus [21] were 1.7 - 27.6% and 2 - 27.2%, respectively. The inhibition entry in experiment [13] is “Active”.
